# Assay results taken from patent publication US8933074B2, “1,2-disubstituted heterocyclic compounds” (FORUM Pharmaceuticals Inc., priority 2008, dated 2015).
# Legend:
# Human PDE10A1 = Human PDE10A1 (Homo sapiens, UniProt Q9Y233); assay: hPDE10A1 enzyme inhibition; format: biochemical; conditions: [3H]-cAMP substrate, 20 minutes at 37° C.; read-out: hPDE10A1 IC50 Band
# Protocol: 50 μl samples of serially diluted Human PDE10A1 enzyme were incubated with 50 μl of [^3H]-cAMP for 20 minutes (at 37° C.). Reactions were carried out in Greiner 96 deep well 1 ml master-block. The enzyme was diluted in 20 mM Tris HCl pH7.4 and [^3H]-cAMP was diluted in 10 mM MgCl2, 40 mM Tris.HCl pH 7.4. The reaction was terminated by denaturing the PDE enzyme (at 70° C.) after which [^3H]-5′-AMP was converted to [^3H]-adenosine by adding 25 μl snake venom nucleotidase and incubating for 10 minutes (at 37° C.). Adenosine, being neutral, was separated from charged cAMP or AMP by the addition of 200 μl Dowex resin. Samples were shaken for 20 minutes then centrifuged for 3 minutes at 2,500 r.p.m. 50 μl of supernatant was removed and added to 200 μl of MicroScint-20 in white plates (Greiner 96-well Optiplate) and shaken for 30 minutes before reading on Perkin Elmer TopCount Scintillation Counter.
# To check inhibition profile 11 μl of serially diluted inhibitor was added to 50 μl of [^3H]-cAMP and 50 ul of diluted Human PDE10A1 and assay was carried out as in the enzyme activity assay. Data was analysed using Prism software (GraphPad Inc).
# rat = conditions: rats; cited from earlier work
# Chain of Human PDE10A1 (Q9Y233 1-779 isoform Q9Y233-1): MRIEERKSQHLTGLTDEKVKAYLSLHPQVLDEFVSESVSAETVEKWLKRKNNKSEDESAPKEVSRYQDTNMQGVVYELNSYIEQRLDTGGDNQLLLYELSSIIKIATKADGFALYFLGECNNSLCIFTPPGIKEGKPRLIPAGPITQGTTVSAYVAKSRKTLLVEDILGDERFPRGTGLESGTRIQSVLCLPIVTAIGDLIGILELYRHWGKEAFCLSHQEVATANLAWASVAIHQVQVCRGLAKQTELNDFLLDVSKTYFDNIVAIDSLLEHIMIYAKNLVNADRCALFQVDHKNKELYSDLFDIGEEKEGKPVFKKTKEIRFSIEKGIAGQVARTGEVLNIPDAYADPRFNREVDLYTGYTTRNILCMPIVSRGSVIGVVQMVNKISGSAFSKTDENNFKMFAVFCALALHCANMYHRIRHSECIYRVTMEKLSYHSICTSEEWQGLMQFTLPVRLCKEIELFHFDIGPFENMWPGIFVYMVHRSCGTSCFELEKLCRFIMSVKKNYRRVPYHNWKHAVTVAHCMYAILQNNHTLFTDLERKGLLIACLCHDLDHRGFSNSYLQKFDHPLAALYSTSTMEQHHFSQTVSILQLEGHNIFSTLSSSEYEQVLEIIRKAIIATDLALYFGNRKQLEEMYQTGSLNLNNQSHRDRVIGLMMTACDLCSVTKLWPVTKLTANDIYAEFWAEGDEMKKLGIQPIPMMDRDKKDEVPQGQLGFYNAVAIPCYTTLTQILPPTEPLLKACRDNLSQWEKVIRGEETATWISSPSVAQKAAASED
Structure (SMILES),IC50 (Human PDE10A1) [nM],other results
"CC1(C)OC(c2ccc(OCC(F)(F)F)cc2)=C(c2ccc(OCc3ccc4ccccc4n3)cc2)C1=O [Example 162, 2,2-dimethyl-4-(4-(quinolin-2-ylmethoxy)phenyl)-5-(4-(2,2,2-trifluoroethoxy)phenyl)furan-3(2H)-one]",≤ 50,–
"CC1(C)OC(c2ccc([N+](=O)[O-])cc2)=C(c2ccc(OCc3ccc4ccccc4n3)cc2)C1=O [Example 164, 2,2-Dimethyl-5-(4-nitrophenyl)-4-(4-(quinolin-2-ylmethoxy)phenyl) furan-3(2H)-one]",≤ 50,–
"CC1(C)OC(c2ccc3nsnc3c2)=C(c2ccc(OCc3ccc4ccccc4n3)cc2)C1=O [Example 167, 5-(Benzo[c][1,2,5]thiadiazol-5-yl)-2,2-dimethyl-4-(4-(quinolin-2-ylmethoxy)phenyl)furan-3(2H)-one]",≤ 50,–
"CC1(C)OC(c2cscn2)=C(c2ccc(OCc3ccc4ccccc4n3)cc2)C1=O [Example 174, 2,2-dimethyl-4-(4-(quinolin-2-ylmethoxy)phenyl)-5-(thiazol-4-yl)furan-3(2H)-one]",≤ 50,–
"CC1(C)OC(c2ccc(OCc3ccc4ccccc4n3)cc2)=C(c2ccncc2)C1=O [Example 249, 2,2-dimethyl-4-(pyridin-4-yl)-5-(4-(quinolin-2-ylmethoxy)phenyl) furan-3(2H)-one]",≤ 50,–
"COc1ccc(C2=C(c3ccc(OCc4ccc5ccccc5n4)cc3)OC(C)(C)C2=O)cc1 [Example 262, 4-(4-methoxyphenyl)-2,2-dimethyl-5-(4-(quinolin-2-ylmethoxy)phenyl)furan-3(2H)-one]",≤ 50,–
"CC1(C)OC(c2ccc(O)cc2)=C(c2ccc(OCc3ccc4ccccc4n3)cc2)C1=O [Example 813, 5-(4-hydroxyphenyl)-2,2-dimethyl-4-(4-(quinolin-2-ylmethoxy)phenyl)furan-3(2H)-one]",≤ 50,–
"CC(=O)Nc1ccc(C2=C(c3ccc(OCc4ccc5ccccc5n4)cc3)C(=O)C(C)(C)O2)cc1 [Example 814, N-(4-(5,5-dimethyl-4-oxo-3-(4-(quinolin-2-ylmethoxy)phenyl)-4,5-dihydrofuran-2-yl)phenyl)acetamide]",≤ 50,–
"Cc1ccc(C2=C(c3ccc(OCc4ccc5ccccc5n4)cc3)C(=O)C(C)(C)O2)cc1 [Example 818, 2,2-dimethyl-4-(4-(quinolin-2-ylmethoxy)phenyl)-5-p-tolylfuran-3(2H)-one]",≤ 50,–
"CC1(C)OC(c2ccc3ocnc3c2)=C(c2ccc(OCc3ccc4ccccc4n3)cc2)C1=O [Example 821, 5-(benzo[d]oxazol-5-yl)-2,2-dimethyl-4-(4-(quinolin-2-ylmethoxy)phenyl)furan-3(2H)-one]",≤ 50,–
"COc1ccc(-c2c(-c3ccc(OCc4ccc5ccccc5n4)cc3)n(C)c(=O)n2C)cc1 [Example 822, 4-(4-Methoxyphenyl)-1,3-dimethyl-5-(4-(quinolin-2-ylmethoxy)phenyl)-1H-imidazol-2(3H)-one]",> 50,–
"O=C1C(c2ccc(OCc3ccc4ccccc4n3)cc2)=C(c2ccncc2)OC12CCCC2 [Example 824, 2-(pyridin-4-yl)-3-(4-(quinolin-2-ylmethoxy)phenyl)-1-oxaspiro[4.4]non-2-en-4-one]",≤ 50,–
COc1ccc(Cc2nccc3cc(OC)c(OC)cc23)cc1OC [papaverine],–,apomorphine induced stereotypes (rat): reduces; haloperidol induced catalepsy (rat): increases; rat brain dopamine levels (rat): reduces

# Second part, led by results:
IC50 (Human PDE10A1) [nM],Structure (SMILES),other results
≤ 50,"CC1(C)OC(c2ccc3nonc3c2)=C(c2ccc(OCc3ccc4ccccc4n3)cc2)C1=O [Example 166, 5-(Benzo[c][1,2,5]oxadiazol-5-yl)-2,2-dimethyl-4-(4-(quinolin-2-ylmethoxy)phenyl)furan-3(2H)-one]",–
≤ 50,"CC1(C)OC(c2ccc(OC(F)F)c(C#N)c2)=C(c2ccc(OCc3ccc4ccccc4n3)cc2)C1=O [Example 169, 2-(difluoromethoxy)-5-(5,5-dimethyl-4-oxo-3-(4-(quinolin-2-ylmethoxy)phenyl)-4,5-dihydrofuran-2-yl)benzonitrile]",–
≤ 50,"CC1(C)OC(c2ccc(-n3cnnn3)cc2)=C(c2ccc(OCc3ccc4ccccc4n3)cc2)C1=O [Example 170, 5-(4-(1H-tetrazol-1-yl)phenyl)-2,2-dimethyl-4-(4-(quinolin-2-ylmethoxy)phenyl)furan-3(2H)-one]",–
≤ 50,"Cc1ccc(COc2ccc(C3=C(c4ccncc4)OC(C)(C)C3=O)cc2)nc1 [Example 808, 2,2-dimethyl-4-(4-((5-methylpyridin-2-yl)methoxy)phenyl)-5-(pyridin-4-yl) furan-3(2H)-one]",–
≤ 50,"Cc1cnc(COc2ccc(C3=C(c4ccncc4)OC(C)(C)C3=O)cc2)c(C)c1 [Example 809, 4-(4-((3,5-Dimethylpyridin-2-yl)methoxy)phenyl)-2,2-dimethyl-5-(pyridin-4-yl) furan-3(2H)-one]",–
≤ 50,"CC1(C)OC(c2ccncc2)=C(c2ccc(OCc3ccc4cc(F)ccc4n3)cc2)C1=O [Example 810, 4-(4-((6-Fluoroquinolin-2-yl)methoxy)phenyl)-2,2-dimethyl-5-(pyridin-4-yl) furan-3(2H)-one]",–
≤ 50,"CC1(C)OC(c2ccccc2)=C(c2ccc(OCc3ccc4ccccc4n3)cc2)C1=O [Example 811, 2,2-dimethyl-5-phenyl-4-(4-(quinolin-2-ylmethoxy)phenyl)furan-3(2H)-one]",–
> 50,"CN1C(=O)C(c2ccc(OCc3ccc4ccccc4n3)cc2)=C(N2CCOCC2)C1=O [Example 812, 1-Methyl-3-morpholino-4-(4-(quinolin-2-ylmethoxy)phenyl)-1H-pyrrole-2,5-dione]",–
≤ 50,"CC1(C)OC(c2ccc(NS(C)(=O)=O)cc2)=C(c2ccc(OCc3ccc4ccccc4n3)cc2)C1=O [Example 815, N-(4-(5,5-dimethyl-4-oxo-3-(4-(quinolin-2-ylmethoxy)phenyl)-4,5-dihydrofuran-2-yl)phenyl)methanesulfonamide]",–
≤ 50,"CC1(C)OC(c2ccc(N(S(C)(=O)=O)S(C)(=O)=O)cc2)=C(c2ccc(OCc3ccc4ccccc4n3)cc2)C1=O [Example 817, N-(4-(5,5-dimethyl-4-oxo-3-(4-(quinolin-2-ylmethoxy)phenyl)-4,5-dihydrofuran-2-yl)phenyl)-N-(methylsulfonyl)methanesulfonamide]",–
≤ 50,"CC(=O)N(C(C)=O)c1ccc(C2=C(c3ccc(OCc4ccc5ccccc5n4)cc3)C(=O)C(C)(C)O2)cc1 [Example 819, N-acetyl-N-(4-(5,5-dimethyl-4-oxo-3-(4-(quinolin-2-ylmethoxy)phenyl)-4,5-dihydrofuran-2-yl)phenyl)acetamide]",–
> 50,"CN1C(=O)C(c2ccc(OCc3ccc4ccccc4n3)cc2)=C(N2CCC(=O)CC2)C1=O [Example 820, 1-Methyl-3-(4-oxopiperidin-1-yl)-4-(4-(quinolin-2-ylmethoxy)phenyl)-1H-pyrrole-2,5-dione]",–
≤ 50,"COc1ccc(C2=C(c3ccc(OCc4ccc5ccccc5n4)cc3)C(=O)NC2(C)C)cc1 [Example 823, 4-(4-methoxyphenyl)-5,5-dimethyl-3-(4-(quinolin-2-ylmethoxy)phenyl)-1H-pyrrol-2(5H)-one]",–
